These results are taken from patent publication US7674457B2, “Methods for enhancing neuroprotection via administration of stem cells and blood brain barrier permeabilizers” (University of South Florida, priority 2003, dated 2010).

One assay concerns trophic factors. The assay is described as follows: Trophic factors in peripheral organs (kidneys, lungs, spleens) of stroke animals. The format is in vivo, Sprague-Dawley rats. Conditions: intravenous, lungs, and spleens.
The subject of the next assay is GDNF, NGF, and BDNF. Kind of assay: Blood levels of trophic factors by ELISA at day 3 after stroke. The format is in vivo, Sprague-Dawley rats. Conditions: intravenous. Here is the method: Finally, the blood levels of GDNF, NGF, and BDNF were measured to further determine the source of trophic factors. Additional stroke animals (n=6 per group) were subjected to the same surgical/drug regimen as above and were euthanized at day 3 after stroke.

For the molecule `OC[C@@H](O)[C@@H](O)[C@H](O)[C@H](O)CO` [mannitol], the “elevation of trophic factors in peripheral organs, above controls” value with trophic factors is 8%. Also, the “trophic factors in circulating blood” value in the assay on GDNF, NGF, and BDNF is “no detectable levels”.
